Biological target: T1, HIV-integrase (recombinant integrase) (Human immunodeficiency virus type 1 group M subtype B, UniProt P12497)
T1 construct: Recombinant integrase (0.26 ng) was incubated with the beads
Experiment: HIV-Integrase Inhibition Activity (SPA bead strand-transfer assay)
Format: biochemical
Conditions: recombinant integrase on biotin labeled substrate DNA/SPA beads, P33 labeled target DNA; read-out: Activity (IC50 against HIV-integrase)
Method: To evaluate in-vitro activity against HIV-integrase, 5 pmole of biotin labeled substrate DNA was bound to 100 μg of Streptavidin coated PVT SPA beads (Amersham Pharmacia Biotech). Recombinant integrase (0.26 ng) was incubated with the beads for 90 min at 37° C. Unbound enzyme was removed by washing the complex followed by addition of inhibitors and 0.1 fmol of P33 labeled target DNA. The reaction was stopped by adding EDTA to a final concentration of 10 mM. Samples were counted in TopCountNXT (Packard) and the CPM was used as a measure of integration. The reaction condition was as described in A. Engelman and R. Craigie, J. Virol. 69, 5908–5911 (1995). The sequences of substrate and target DNA were described in Nucleic Acid Research 22, 1121–1122 (1994). Activity equal to A refers to a compound having IC50=0.003 to 0.10 μM while B and C denote compounds the following IC50=0.1 to 1.0 μM and IC50≧1.0 μM respectively.

SMILES	IC50
COc1cccc(CCNC(=O)c2nc(N3CCCCS3(=O)=O)n(C)c(=O)c2O)c1 [Compound 39, 1,6-dihydro-5-hydroxy-N-[2-(3-methoxyphenyl)ethyl]-1-methyl-6-oxo-2-(tetrahydro-1,1-dioxido-2H-1,2-thiazin-2-yl)-4-pyrimidinecarboxamide]	≥ 1000 nM
Cn1c(N2CCCCS2(=O)=O)nc(C(=O)NCC(c2ccccc2)c2ccccc2)c(O)c1=O [Compound 25, N-(2,2-diphenylethyl)-1,6-dihydro-5-hydroxy-1-methyl-6-oxo-2-(tetrahydro-1,1-dioxido-2H-1,2-thiazin-2-yl)-4-pyrimidinecarboxamide]	≥ 1000 nM
Cn1c(N2CCNCC2)nc(C(=O)NCc2ccc(F)cc2)c(O)c1=O [Compound 69, N-[(4-fluorophenyl)methyl]-1,6-dihydro-5-hydroxy-1-methyl-6-oxo-2-(1-piperazinyl)-4-pyrimidinecarboxamide]	100 to 1000 nM
Cn1c(N2Cc3ccc(F)cc3C2=O)nc(C(=O)NCc2ccc(F)cc2)c(O)c1=O [Compound 102, 2-(6-fluoro-1,3-dihydro-1-oxo-2H-isoindol-2-yl)-N-[(4-fluorophenyl)methyl]-1,6-dihydro-5-hydroxy-1-methyl-6-oxo-4-pyrimidinecarboxamide]	3 to 100 nM
Cn1c(N2CCN(c3ccccc3)CC2)nc(C(=O)NCc2ccc(F)cc2)c(O)c1=O [Compound 79, N-[(4-fluorophenyl)methyl]-1,6-dihydro-5-hydroxy-1-methyl-6-oxo-2-(4-phenyl-1-piperazinyl)-4-pyrimidinecarboxamide]	3 to 100 nM
Cc1cc(CNC(=O)c2nc(N3CCC3)n(C)c(=O)c2O)ccc1F [Compound 93, 2-(1-azetidinyl)-N-[(4-fluoro-3-methylphenyl)methyl]-1,6-dihydro-5-hydroxy-1-methyl-6-oxo-4-pyrimidinecarboxamide]	3 to 100 nM
Cn1c(N2CCCCS2(=O)=O)nc(C(=O)NCCc2ccc(Cl)cc2)c(O)c1=O [Compound 26, N-[2-(4-chlorophenyl)ethyl]-1,6-dihydro-5-hydroxy-1-methyl-6-oxo-2-(tetrahydro-1,1-dioxido-2H-1,2-thiazin-2-yl)-4-pyrimidinecarboxamide]	≥ 1000 nM
Cn1c(N2CCC(C(N)=O)CC2)nc(C(=O)NCc2ccc(F)cc2)c(O)c1=O [Compound 94, 2-[4-(aminocarbonyl)-1-piperidinyl]-N-[(4-fluorophenyl)methyl]-1,6-dihydro-5-hydroxy-1-methyl-6-oxo-4-pyrimidinecarboxamide]	3 to 100 nM
COc1ccc(CNC(=O)c2nc(N3CCCCS3(=O)=O)n(C)c(=O)c2O)c(OC)c1 [Compound 22, N-[(2,4-dimethoxyphenyl)methyl]-1,6-dihydro-5-hydroxy-1-methyl-6-oxo-2-(tetrahydro-1,1-dioxido-2H-1,2-thiazin-2-yl)-4-pyrimidinecarboxamide]	3 to 100 nM
Cn1c(N2CCCCS2(=O)=O)nc(C(=O)NCc2ccc(Cl)cc2Cl)c(O)c1=O [Compound 43, N-[(2,4-dichlorophenyl)methyl]-1,6-dihydro-5-hydroxy-1-methyl-6-oxo-2-(tetrahydro-1,1-dioxido-2H-1,2-thiazin-2-yl)-4-pyrimidinecarboxamide]	100 to 1000 nM
Cn1c(N2CCCCS2(=O)=O)nc(C(=O)NCCc2ccc(F)cc2)c(O)c1=O [Compound 16, N-[2-(4-fluorophenyl)ethyl]-1,6-dihydro-5-hydroxy-1-methyl-6-oxo-2-(tetrahydro-1,1-dioxido-2H-1,2-thiazin-2-yl)-4-pyrimidinecarboxamide]	≥ 1000 nM
Cc1cc(CNC(=O)c2nc(N3CCNCC3)n(C)c(=O)c2O)ccc1F [Compound 70, N-[(4-fluoro-3-methylphenyl)methyl]-1,6-dihydro-5-hydroxy-1-methyl-6-oxo-2-(1-piperazinyl)-4-pyrimidinecarboxamide]	3 to 100 nM
Cc1cc(CNC(=O)c2nc(N3CCN(CCO)CC3)n(C)c(=O)c2O)ccc1F [Compound 68, N-[(4-fluoro-3-methylphenyl)methyl]-1,6-dihydro-5-hydroxy-2-[4-(2-hydroxyethyl)-1-piperazinyl]-1-methyl-6-oxo-4-pyrimidinecarboxamide]	3 to 100 nM
Cn1c(N2CCCCS2(=O)=O)nc(C(=O)NCc2ccc(Cl)c(Cl)c2)c(O)c1=O [Compound 2, N-[(3,4-dichlorophenyl)methyl]-1,6-dihydro-5-hydroxy-1-methyl-6-oxo-2-(tetrahydro-1,1-dioxido-2H-1,2-thiazin-2-yl)-4-pyrimidinecarboxamide]	3 to 100 nM
Cn1c(N2CCCCS2(=O)=O)nc(C(=O)NCc2cc(F)ccc2F)c(O)c1=O [Compound 45, N-[(2,5-difluorophenyl)methyl]-1,6-dihydro-5-hydroxy-1-methyl-6-oxo-2-(tetrahydro-1,1-dioxido-2H-1,2-thiazin-2-yl)-4-pyrimidinecarboxamide]	100 to 1000 nM
Cc1cc(CNC(=O)c2nc(N3CCN(c4ccccn4)CC3)n(C)c(=O)c2O)ccc1F [Compound 76, N-[(4-fluoro-3-methylphenyl)methyl]-1,6-dihydro-5-hydroxy-1-methyl-6-oxo-2-[4-(2-pyridinyl)-1-piperazinyl]-4-pyrimidinecarboxamide]	3 to 100 nM
Cn1c(N2CCCCC2CCO)nc(C(=O)NCc2ccc(F)cc2)c(O)c1=O (centres unmarked) [Compound 98, N-[(4-fluorophenyl)methyl]-1,6-dihydro-5-hydroxy-2-[2-(2-hydroxyethyl)-1-piperidinyl]-1-methyl-6-oxo-4-pyrimidinecarboxamide]	3 to 100 nM
Cc1cc(CNC(=O)c2nc(N3CCCCC3CO)n(C)c(=O)c2O)ccc1F (centres unmarked) [Compound 97, N-[(4-fluoro-3-methylphenyl)methyl]-1,6-dihydro-5-hydroxy-2-[2-(hydroxymethyl)-1-piperidinyl]-1-methyl-6-oxo-4-pyrimidinecarboxamide]	3 to 100 nM
Cn1c(N2CCCCS2(=O)=O)nc(C(=O)NCc2ccco2)c(O)c1=O [Compound 33, N-(2-furanylmethyl)-1,6-dihydro-5-hydroxy-1-methyl-6-oxo-2-(tetrahydro-1,1-dioxido-2H-1,2-thiazin-2-yl)-4-pyrimidinecarboxamide]	100 to 1000 nM
Cc1ccc(CNC(=O)c2nc(N3CCCCS3(=O)=O)n(C)c(=O)c2O)o1 [Compound 23, 1,6-dihydro-5-hydroxy-1-methyl-N-[(5-methyl-2-furanyl)methyl]-6-oxo-2-(tetrahydro-1,1-dioxido-2H-1,2-thiazin-2-yl)-4-pyrimidinecarboxamide]	3 to 100 nM
Cn1c(N2CCCCS2(=O)=O)nc(C(=O)NCc2ccccc2C(F)(F)F)c(O)c1=O [Compound 46, 1,6-dihydro-5-hydroxy-1-methyl-6-oxo-2-(tetrahydro-1,1-dioxido-2H-1,2-thiazin-2-yl)-N-[[2-(trifluoromethyl)phenyl]methyl]-4-pyrimidinecarboxamide]	100 to 1000 nM
CNc1nc(C(=O)NCc2ccc(F)cc2)c(O)c(=O)n1C [Compound 64, 5-Hydroxy-1-methyl-2-methylamino-6-oxo-1,6-dihydro-pyrimidine-4-carboxylic acid 4-fluoro-benzylamine]	3 to 100 nM
Cn1c(N2CCN(c3ccccn3)CC2)nc(C(=O)NCc2ccc(F)cc2)c(O)c1=O [Compound 75, N-[(4-fluorophenyl)methyl]-1,6-dihydro-5-hydroxy-1-methyl-6-oxo-2-[4-(2-pyridinyl)-1-piperazinyl]-4-pyrimidinecarboxamide]	3 to 100 nM
CCCN1CCN(c2nc(C(=O)NCc3ccc(F)c(C)c3)c(O)c(=O)n2C)CC1 [Compound 74, N-[(4-fluoro-3-methylphenyl)methyl]-1,6-dihydro-5-hydroxy-1-methyl-6-oxo-2-(4-propyl-1-piperazinyl)-4-pyrimidinecarboxamide]	3 to 100 nM
CCCN1CCN(c2nc(C(=O)NCc3ccc(F)cc3)c(O)c(=O)n2C)CC1 [Compound 73, N-[(4-fluorophenyl)methyl]-1,6-dihydro-5-hydroxy-1-methyl-6-oxo-2-(4-propyl-1-piperazinyl)-4-pyrimidinecarboxamide]	3 to 100 nM
Cn1c(N2CCCCS2(=O)=O)nc(C(=O)NCc2ccc(F)cc2)c(O)c1=O [Compound 1, N-[(4-fluorophenyl)methyl]-1,6-dihydro-5-hydroxy-1-methyl-6-oxo-2-(tetrahydro-1,1-dioxido-2H-1,2-thiazin-2-yl)-4-pyrimidinecarboxamide]	3 to 100 nM
Cn1c(N2CCCCS2(=O)=O)nc(C(=O)NCc2ccc(F)c(C(F)(F)F)c2)c(O)c1=O [Compound 20, N-[[4-fluoro-3-(trifluoromethyl)phenyl]methyl]-1,6-dihydro-5-hydroxy-1-methyl-6-oxo-2-(tetrahydro-1,1-dioxido-2H-1,2-thiazin-2-yl)-4-pyrimidinecarboxamide]	3 to 100 nM
Cn1c(N2CCN(c3ncccn3)CC2)nc(C(=O)NCc2ccc(F)cc2)c(O)c1=O [Compound 77, N-[(4-fluorophenyl)methyl]-1,6-dihydro-5-hydroxy-1-methyl-6-oxo-2-[4-(2-pyrimidinyl)-1-piperazinyl]-4-pyrimidinecarboxamide]	3 to 100 nM
Cn1c(N2CCCCS2(=O)=O)nc(C(=O)NCc2cc(Cl)cc(Cl)c2)c(O)c1=O [Compound 12, N-[(3,5-dichlorophenyl)methyl]-1,6-dihydro-5-hydroxy-1-methyl-6-oxo-2-(tetrahydro-1,1-dioxido-2H-1,2-thiazin-2-yl)-4-pyrimidinecarboxamide]	3 to 100 nM

— US7135467B2, “HIV integrase inhibitors” (priority 2003, dated 2006)
